Source: ChEMBL document CHEMBL2346530, “Discovery of non-peptide inhibitors of Plasmepsin II by structure-based virtual screening” (Bioorg Med Chem Lett, 2013)

Tests used:
Plasmepsin II = Plasmepsin II (Plasmodium falciparum, UniProt P46925); assay: Inhibition of recombinant Plasmodium falciparum plasmepsin 2 expressed in Escherichia coli using DABCYL-Glu-Arg-Nle-Phe-Leu-Ser-Phe-Pro-EDANS as substrate incubated for 40 mins prior to substrate addition measured after 10 mins by FRET-based fluorometric analysis
[1] = molecular target: Plasmepsin II (Plasmodium falciparum) (UniProt P46925); assay: Inhibition of recombinant Plasmodium falciparum plasmepsin 2 expressed in Escherichia coli using DABCYL-Glu-Arg-Nle-Phe-Leu-Ser-Phe-Pro-EDANS as substrate at 10 uM incubated for 40 mins prior to substrate addition measured after 10 mins by FRET-based fluorometric analysis
Sequence of Plasmepsin II (Plasmodium falciparum) (P46925 125-453 limits assumed): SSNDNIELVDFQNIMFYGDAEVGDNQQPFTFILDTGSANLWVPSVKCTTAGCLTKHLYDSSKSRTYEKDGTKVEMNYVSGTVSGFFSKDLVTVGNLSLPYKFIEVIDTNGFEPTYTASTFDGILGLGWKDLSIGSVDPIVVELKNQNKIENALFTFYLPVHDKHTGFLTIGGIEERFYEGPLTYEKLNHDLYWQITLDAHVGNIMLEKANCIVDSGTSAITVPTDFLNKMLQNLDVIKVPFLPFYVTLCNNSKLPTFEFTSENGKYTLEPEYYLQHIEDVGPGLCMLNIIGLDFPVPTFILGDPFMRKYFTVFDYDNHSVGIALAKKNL

Sequence of Plasmepsin II (P46925 whole entry): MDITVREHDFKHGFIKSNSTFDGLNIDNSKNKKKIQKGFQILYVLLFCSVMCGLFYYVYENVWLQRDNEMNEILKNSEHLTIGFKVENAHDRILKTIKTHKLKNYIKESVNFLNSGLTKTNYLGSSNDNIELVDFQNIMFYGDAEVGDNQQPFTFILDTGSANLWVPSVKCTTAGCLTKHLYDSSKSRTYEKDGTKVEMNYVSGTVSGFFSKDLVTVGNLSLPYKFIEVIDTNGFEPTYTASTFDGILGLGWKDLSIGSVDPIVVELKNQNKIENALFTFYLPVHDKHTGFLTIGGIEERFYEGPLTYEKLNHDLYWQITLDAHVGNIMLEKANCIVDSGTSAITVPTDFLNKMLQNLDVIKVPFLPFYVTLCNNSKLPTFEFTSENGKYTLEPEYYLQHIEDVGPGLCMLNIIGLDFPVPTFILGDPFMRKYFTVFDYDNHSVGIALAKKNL

Row | Structure (SMILES) | IC50 (Plasmepsin II) | inhibition [1]
1 | O=C(CN(c1cccc(Br)c1)S(=O)(=O)c1ccccc1)Nc1ccc(CSc2ccccc2)cc1 | 8.99 µM | 54.7%
2 | OC(CNCc1ccccc1)Cn1c2ccc(Cl)cc2c2cc(Cl)ccc21 (stereo not given) | 9.47 µM | 52%

Stronger by IC50 (Plasmepsin II), values ahead:

Row | IC50 (Plasmepsin II) | inhibition [1] | Structure (SMILES)
3 | 4.62 µM | 67.7% | Cc1ccccc1N/C(=N\N=C/c1ccc2ccc3ccc(/C=N\N=C(/Nc4ccccc4C)c4ccccn4)nc3c2n1)c1ccccn1
4 | 6.45 µM | 55% | N=C(S)NN/C(=C\c1nc(-c2ccccn2)cc2ccccc12)c1ccc(Cl)cc1
5 | 7 µM | 60.6% | Cc1ccc(S(=O)(=O)Nc2ccccc2CNc2cnc3ccccc3c2)cc1
